Source: patent US9676719B2, “Phenyl derivative” (ONO PHARMACEUTICAL CO., LTD., priority 2013, dated 2017)
Converted amounts (≈) assume the structure as drawn.

What was measured:
rat S1P2 (EDG-5) = biological target: T1, rat S1P2 (EDG-5) (Rattus norvegicus, UniProt P47752); test: S1P2 (EDG-5) antagonistic activity by monitoring the change in intracellular calcium ion concentration (rat); format: cell-based; conditions: CHO cells overexpressing rat S1P2 (EDG-5) gene; suppression of S1P (30 or 300 nM)-induced intracellular calcium increase, Fura2-AM
T1 construct: expressed in transfected cells; host or cells: CHO cells (blasticidin S selection)
Protocol: (§1) Chinese hamster ovary (CHO) cells overexpressing the human S1P2 (EDG-5) gene were cultured in a Ham's F12 medium containing 10% fetal bovine serum (FBS), an antibiotic/antifungal agent and G418. CHO cells overexpressing the rat S1P2 (EDG-5) gene were cultured in a Ham's F12 medium containing 10% FBS, penicillin/streptomycin and blasticidin S. The cultured cells were incubated in a Fura2-AM solution (5 μM) [a Ham's F12 medium containing FBS (10%), HEPES buffer (20 mM, pH 7.2 to 7.5) and probenecid (2.5 mM)] at 37° C. for 60 minutes. The cells were washed twice with a Hanks' balanced saline containing HEPES buffer (20 mM, pH 7.2 to 7.5) and probenecid (2.5 mM) and immersed in the same solution. A plate was mounted on a fluorescence-based drug screening system and the intracellular calcium ion concentration was measured for 30 seconds without stimulation. A test substance (the final concentration of human S1P2: 0.25 nM to 25 μM and the final concentration of rat S1P2: 0.25 nM to 2.5 μM) or a dimethyl sulphoxide (DMSO) solution was added and after 3 minutes S1P (final concentration: 30 or 300 nM) was added and the increase in the intracellular calcium ion concentration before and after the addition of S1P was measured with an interval of 3 seconds (excitation wavelength: 340 nm and 380 nm, fluorescence wavelength: 540 nm).
(§2) The S1P2 (EDG-5) antagonistic activity was calculated as a suppression (%) from the following formula, wherein A is a control value which was a peak value after addition of S1P (final concentration: 30 or 300 nM) in the wells added with DMSO without a test substance and B is an increased amount after addition of S1P in the cells treated with the test substance: [M 1] Suppression (%)=[(A−B)/A]×100
(§3) Comparative compounds used were the compounds disclosed in Example 1 (64) (hereinafter referred to as comparative compound A) and Example 1 (85) (hereinafter referred to as comparative compound B) in Patent Document 3 (WO 2004/002531). The structural formulae of the comparative compounds are shown below respectively.

Solubility measurement = format: physicochemical; conditions: aqueous buffer, kinetic from dmso stock; second solution of Japanese Pharmacopoeia (pH 6.8), room temperature, stirring 5 hours, LC-MS/MS
Protocol: A solution for obtaining a calibration curve was prepared by diluting a test substance (10 mmol/L, DMSO solution) in acetonitrile and adding acetonitrile containing an internal standard substance (warfarin) to adjust to 0.1, 0.4 and 2 μmol/L. A sample solution was prepared by adding to 495 μL (pH 6.8) of the second solution defined in Japanese Pharmacopoeia (a solution used was obtained by adding water to 250 mL of a 0.2 mol/L potassium dihydrogen phosphate reagent solution and 118 mL of a 0.2 mol/L sodium hydroxide reagent solution to adjust to 1000 mL) 5 μL of a test substance (10 mmol/L, DMSO solution), stirring at room temperature for 5 hours, transferring the obtained solution to a plate with a filter for vacuum filtration, diluting 20 μL of the filtrate with acetonitrile and adding acetonitrile containing the internal standard. The solution for obtaining a calibration curve and the sample solution (5 μL each) were injected to LC-MS/MS (Discovery Max from Thermo Scientific) for quantification (quantification range: 0.1 to 2 μmol/L). The solubility was calculated by multiplying the quantified value by 50. When the quantified value was outside of the quantification range, the solubility was expressed as <5 μmol/L or 100 μmol/L.

human S1P2 (EDG-5) = biological target: T2, human S1P2 (EDG-5) (Homo sapiens, UniProt O95136); test: S1P2 (EDG-5) antagonistic activity by monitoring the change in intracellular calcium ion concentration (human); format: cell-based; conditions: CHO cells overexpressing human S1P2 (EDG-5) gene; suppression of S1P (30 or 300 nM)-induced intracellular calcium increase, Fura2-AM
T2 construct: expressed in transfected cells; host or cells: CHO cells (G418 selection)
Protocol: as §1, §2, §3

T2 sequence (O95136 whole entry): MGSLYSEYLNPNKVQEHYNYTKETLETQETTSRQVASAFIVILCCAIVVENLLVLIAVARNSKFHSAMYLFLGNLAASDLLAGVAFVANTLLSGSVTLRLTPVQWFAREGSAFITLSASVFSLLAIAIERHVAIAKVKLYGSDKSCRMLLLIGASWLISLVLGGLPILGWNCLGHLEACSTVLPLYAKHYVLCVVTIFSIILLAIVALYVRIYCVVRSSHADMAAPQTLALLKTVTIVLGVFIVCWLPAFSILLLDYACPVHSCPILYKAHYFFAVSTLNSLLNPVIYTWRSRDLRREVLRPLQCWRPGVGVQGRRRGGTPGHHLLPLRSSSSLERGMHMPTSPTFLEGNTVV
T1 sequence (P47752 whole entry): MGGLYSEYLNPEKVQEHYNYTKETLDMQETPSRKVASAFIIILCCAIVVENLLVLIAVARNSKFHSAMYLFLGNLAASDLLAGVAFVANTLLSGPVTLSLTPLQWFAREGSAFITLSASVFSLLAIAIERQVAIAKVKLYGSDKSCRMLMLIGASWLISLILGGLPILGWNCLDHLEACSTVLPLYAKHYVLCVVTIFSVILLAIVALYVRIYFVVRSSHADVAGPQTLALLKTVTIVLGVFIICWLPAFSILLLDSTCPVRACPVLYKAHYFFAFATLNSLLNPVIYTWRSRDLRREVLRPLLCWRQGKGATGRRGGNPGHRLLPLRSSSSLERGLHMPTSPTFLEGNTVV

IC50 (rat S1P2 (EDG-5)) [nM]	solubility at 5 h (Solubility measurement) [µM]	IC50 (human S1P2 (EDG-5)) [nM]	Structure (SMILES)
3	90 (≈ 49.6 µg/mL)	7.3	CC(C)CC1(O)CCN(C(=O)Nc2cc(C(=O)Oc3ccc(C(C)(C)C(=O)O)cc3)cc(C(F)(F)F)c2)CC1 [Example 8, 2-(4-{[3-{[(4-hydroxy-4-isobutyl-1-piperidinyl)carbonyl]amino}-5-(trifluoromethyl)benzoyl]oxy}phenyl)-2-methylpropanoic acid]
	< 5		CCC(CC)CC1(O)CCN(C(=O)Nc2cc(F)cc(C(F)(F)F)c2)CC1 [Comparative compound A, reference compound]
9.4	72 (≈ 41 µg/mL)	4.6	CS(=O)(=O)NC(=O)c1ccc(Oc2cc(NC(=O)N3CCC(O)(C4CCCC4)CC3)cc(C(F)(F)F)c2)cc1 [Example 5 (1), 4-cyclopentyl-4-hydroxy-N-[3-{4-[(methylsulphonyl)carbamoyl]phenoxy}-5-(trifluoromethyl)phenyl]-1-piperidine carboxamide]
5.1	74 (≈ 41.5 µg/mL)	8.4	O=C(Nc1cc(Oc2ccc(C3(C(=O)O)CCCC3)cc2)cc(C(F)(F)F)c1)N1CCC(O)(C2CCCCC2)C1 (stereo not shown) [Example 5 (7), 1-{4-[3-{[(3-cyclohexyl-3-hydroxy-1-pyrrolidinyl)carbonyl]amino}-5-(trifluoromethyl)phenoxy]phenyl}cyclopentanecarboxylic acid]

Structure (SMILES)	IC50 (rat S1P2 (EDG-5)) [nM]	solubility at 5 h (Solubility measurement) [µM]	IC50 (human S1P2 (EDG-5)) [nM]
CCC(CC)CC1(O)CCN(C(=O)Nc2cccc(Oc3ccc(F)cc3)c2)CC1 [Comparative compound B, reference compound]	27	< 5	1200
